pKi: −log10 of the molar value. “And” between values parts separate entries of the source, which are not always exact repeats. Equal values may be shown once. Read-outs that look alike come from different tables or passages of the source.
What was measured:
JAK3 = biological target: T1, JAK3 (Homo sapiens, UniProt P52333); assay: biochemical
T1 sequence (P52333 1-1124): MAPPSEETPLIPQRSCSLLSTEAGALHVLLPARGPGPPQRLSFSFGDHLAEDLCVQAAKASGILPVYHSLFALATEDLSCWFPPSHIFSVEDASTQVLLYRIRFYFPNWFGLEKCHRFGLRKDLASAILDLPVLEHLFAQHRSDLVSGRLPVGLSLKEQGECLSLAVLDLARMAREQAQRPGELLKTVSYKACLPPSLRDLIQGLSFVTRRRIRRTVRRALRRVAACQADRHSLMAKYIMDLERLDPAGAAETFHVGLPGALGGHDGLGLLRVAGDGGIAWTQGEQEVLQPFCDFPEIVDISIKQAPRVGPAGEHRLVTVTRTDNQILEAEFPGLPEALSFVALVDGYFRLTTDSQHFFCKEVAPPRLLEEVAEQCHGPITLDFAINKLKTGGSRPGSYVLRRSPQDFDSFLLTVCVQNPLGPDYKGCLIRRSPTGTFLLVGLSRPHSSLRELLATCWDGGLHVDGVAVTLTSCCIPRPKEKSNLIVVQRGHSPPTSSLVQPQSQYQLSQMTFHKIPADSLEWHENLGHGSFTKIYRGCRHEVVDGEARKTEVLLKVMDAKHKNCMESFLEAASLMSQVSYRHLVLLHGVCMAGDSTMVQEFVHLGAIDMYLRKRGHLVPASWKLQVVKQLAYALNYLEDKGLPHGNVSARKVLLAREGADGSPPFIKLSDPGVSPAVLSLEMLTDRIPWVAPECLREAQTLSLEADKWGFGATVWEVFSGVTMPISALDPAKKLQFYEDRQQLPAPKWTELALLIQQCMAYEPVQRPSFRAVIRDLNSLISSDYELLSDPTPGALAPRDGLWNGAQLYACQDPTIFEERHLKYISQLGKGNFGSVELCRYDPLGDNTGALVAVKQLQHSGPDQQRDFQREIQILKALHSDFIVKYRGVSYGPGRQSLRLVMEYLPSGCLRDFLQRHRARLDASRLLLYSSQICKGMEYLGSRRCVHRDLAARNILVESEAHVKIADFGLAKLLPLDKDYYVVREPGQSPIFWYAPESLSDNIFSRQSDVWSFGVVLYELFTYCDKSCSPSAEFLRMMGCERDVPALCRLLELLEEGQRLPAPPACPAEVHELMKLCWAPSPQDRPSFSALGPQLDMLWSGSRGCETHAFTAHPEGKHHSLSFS

Aurora-1 (Aurora B) = Aurora-1 (Aurora B) (Homo sapiens, UniProt Q96GD4); assay: Aurora-1 (Aurora B) inhibition assay (radiometric); assay type: biochemical
In short: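 Radiometric ^33P incorporation into peptide substrate, with [γ-^33P]-ATP at 800 μM final, in 25 mM HEPES pH 7.5, 10 mM MgCl2, 0.1% BSA, 10% glycerol. Compound preincubated with enzyme for 10 min at 25° C, reaction run 3 h, then captured on phosphocellulose. Ki from initial rates by non-linear regression after background subtraction.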

[1] = read-out: Aurora B kinase Ki value

Aurora-1 (Aurora B), sequence (Q96GD4 whole entry): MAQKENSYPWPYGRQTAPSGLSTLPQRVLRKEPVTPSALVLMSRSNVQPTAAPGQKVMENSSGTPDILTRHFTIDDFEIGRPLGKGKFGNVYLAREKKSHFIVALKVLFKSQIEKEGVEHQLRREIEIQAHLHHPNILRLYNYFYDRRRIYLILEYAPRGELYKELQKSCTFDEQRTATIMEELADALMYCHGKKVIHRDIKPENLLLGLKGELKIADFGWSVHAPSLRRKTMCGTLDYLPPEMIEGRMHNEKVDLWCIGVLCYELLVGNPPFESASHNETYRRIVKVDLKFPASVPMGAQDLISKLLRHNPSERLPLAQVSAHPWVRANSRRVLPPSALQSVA

Row | Structure (SMILES) | pKi (JAK3) | pKi (Aurora-1 (Aurora B); [1]) | pKi (JAK3; read-out: JAK3 Ki value) | pKi (Aurora-1 (Aurora B); Aurora B kinase Ki value)
1 | Cc1cc(Nc2cc(N3CCC3)nc(Sc3ccc(NC(=O)C(C)(C)C)cc3)n2)[nH]n1 [Compound 114] | 5.70 to 6.30 | 7.30 to 8.00 |  | 
2 | Cc1cc(Nc2cc(N3CCC3)nc(Sc3ccc(N(C)C(=O)c4ccccc4F)cc3)n2)n[nH]1 [Compound 10] | 6.30 to 8.00 | 5.70 to 7.30 |  | 
3 | Cc1cc(Nc2cc(N3CCC3)nc(Sc3ccc(NC(=O)C(F)(F)F)cc3)n2)[nH]n1 [Compound 158] |  | ≥ 8.00 | ≥ 8.00 | 
4 | Cc1cc(Nc2cc(N3CCC3)nc(Sc3ccc(NC(=O)C4CC4)cc3)n2)n[nH]1 [Compound 17] | 6.30 to 8.00 | 7.30 to 8.00 |  | 
5 | Cc1cc(Nc2cc(N3CCC3)nc(Oc3ccc(NC(=O)c4ccccc4C(F)(F)F)cc3)n2)[nH]n1 [Compound 134] | 6.30 to 8.00 | 7.30 to 8.00 and > 7.60 |  | 
6 | Cc1cc(Nc2cc(N3CC(N4CCOCC4)C3)nc(Sc3ccc(NC(=O)C4(C(F)(F)F)CC4)cc3)n2)[nH]n1 [Compound 191] |  | ≥ 8.00 | 6.30 to 8.00 | 
7 | Cc1cc(Nc2cc(N3CCC3)nc(Sc3ccc(N)cc3)n2)[nH]n1 [Compound 108] |  | 5.70 to 7.30 | ≥ 8.00 | 
8 | Cc1cc(Nc2cc(N3CCC3)nc(Sc3ccc(NC(=O)c4ccc(Cl)cc4Cl)cc3)n2)n[nH]1 [Compound 162] | 6.30 to 8.00 | 7.30 to 8.00 and > 7.60 |  | 
9 | CCC(=O)Nc1ccc(Sc2nc(Nc3cc(C4CC4)n[nH]3)cc(N3CC(N4CCOCC4)C3)n2)cc1 [Compound 78] |  | ≥ 8.00 | ≥ 8.00 | 
10 | CCC(=O)Nc1ccc(Sc2nc(Nc3cc(C)n[nH]3)cc(N3CC(C)(OC(C)C)C3)n2)cc1 [Compound 95] | 6.30 to 8.00 | 7.30 to 8.00 and > 7.60 |  | 
11 | Cc1cc(Nc2cc(N3CCC3)nc(Sc3ccc(NC(=O)Cc4ccccc4)cc3)n2)n[nH]1 [Compound 35] | 5.70 to 6.30 | 7.30 to 8.00 |  | 
12 | CCC(=O)Nc1ccc(Sc2nc(Nc3cc(C)n[nH]3)cc(N3CC(O)(C(F)(F)F)C3)n2)cc1 [Compound 94] |  | 7.30 to 8.00 and > 7.60 | 6.30 to 8.00 | 
13 | Cc1cc(Nc2cc(N3CCC3)nc(Sc3ccc(NC(=O)Cc4cccc(Cl)c4)cc3)n2)[nH]n1 [Compound 58] |  | 7.30 to 8.00 and > 7.60 | 5.70 to 6.30 | 
14 | Cc1cnc(Nc2cc(N3CC(N)C3)nc(Sc3ccc(NC(=O)C4CC4)cc3)n2)s1 [Compound 2] | 5.70 to 6.30 | 5.70 to 7.30 |  | 
15 | CCC(=O)Nc1ccc(Sc2nc(Nc3cc(C4CC4)n[nH]3)cc(N3CC(C)(O)C3)n2)cc1 [Compound 76] | ≥ 8.00 | ≥ 8.00 |  | 
16 | Cc1cc(Nc2cc(N3CCC3)nc(Sc3ccc(NC(=O)c4ocnc4C)cc3)n2)n[nH]1 [Compound 167] | 6.30 to 8.00 | 5.70 to 7.30 |  | 
17 | Cc1cnc(Nc2cc(N3CC(N(C)C)C3)nc(Sc3ccc(NC(=O)C4CC4)cc3)n2)s1 [Compound 1] | 6.30 to 8.00 | 7.30 to 8.00 |  | 
18 | Cc1cc(Nc2cc(N3CCC3)nc(Sc3ccc(NC(=O)c4ccccc4N(C)C)cc3)n2)[nH]n1 [Compound 124] | 5.70 to 6.30 | 5.70 to 7.30 |  | 
19 | CCC(=O)Nc1ccc(Sc2nc(C#CC(C)(C)N3CCC3)cc(Nc3cc(C)n[nH]3)n2)cc1 [Compound 77] | 5.70 to 6.30 | 5.70 to 7.30 |  | 
20 | Cc1cc(Nc2cc(N3CC(C)(O)C3)nc(Sc3ccc(NC(=O)c4ccccc4C(F)(F)F)cc3)n2)[nH]n1 [Compound 115] | ≥ 8.00 | ≥ 8.00 |  | 
21 | CC1=NN=C(Nc2cc(N3CCC3)nc(Sc3ccc(NC(=O)c4ccccc4Cl)cc3)n2)C1 [Compound 5] |  | ≥ 8.00 | 6.30 to 8.00 | 
22 | CC1=NN=C(Nc2cc(N3CCC3)nc(Sc3ccc(NC(=O)c4cccc(C(F)(F)F)c4F)cc3)n2)C1 [Compound 55] | 6.30 to 8.00 | ≥ 8.00 |  | 

Row | Structure (SMILES) | pKi (JAK3) | pKi (Aurora-1 (Aurora B); [1]) | pKi (JAK3; read-out: JAK3 Ki value) | pKi (Aurora-1 (Aurora B); Aurora B kinase Ki value)
23 | CCCNC(=O)Nc1ccc(Sc2nc(Nc3cc(C)[nH]n3)cc(N3CCC3)n2)cc1 [Compound 73] |  | 5.70 to 7.30 | 5.70 to 6.30 | 
24 | Cc1cc(Nc2cc(N3CCC3)nc(Sc3ccc(NC(=O)c4ccc(Cl)cc4)cc3)n2)n[nH]1 [Compound 54] | 6.30 to 8.00 | 5.70 to 7.30 |  | 
25 | Cc1cc(Nc2cc(N3CCC3)nc(Sc3ccc(NC(=O)NCc4ccccc4)cc3)n2)n[nH]1 [Compound 74] | 6.30 to 8.00 | 5.70 to 7.30 |  | 
26 | Cc1cc(Nc2cc(N3CC(F)(C4CC4)C3)nc(Sc3ccc(-c4ncc(C)o4)cc3)n2)[nH]n1 [Compound 175] | 6.30 to 8.00 | 5.70 to 7.30 |  | 
27 | COC1CN(c2cc(Nc3cc(C)[nH]n3)nc(Sc3ccc(NC(=O)c4ccccc4Cl)cc3)n2)C1 [Compound 12] | ≥ 8.00 | ≥ 8.00 |  | 
28 | Cc1ccc(C(=O)Nc2ccc(Sc3nc(Nc4cc(C)n[nH]4)cc(N4CCC4)n3)cc2)cn1 [Compound 145] | 6.30 to 8.00 | 5.70 to 7.30 |  | 
29 | CC1=NN=C(Nc2cc(N3CCC3)nc(Sc3ccc(NC(=O)c4cccc(Cl)c4F)cc3)n2)C1 [Compound 61] |  | ≥ 8.00 | 6.30 to 8.00 | 
30 | CCC(=O)Nc1ccc(Sc2nc(Nc3cc(C)n[nH]3)cc(N3CC(C)(C#N)C3)n2)cc1 [Compound 79] |  | 7.30 to 8.00 and > 7.60 | 6.30 to 8.00 | 
31 | Cc1cc(Nc2cc(N3CC(C#N)C3)nc(Sc3ccc(NC(=O)c4ccccc4Cl)cc3)n2)n[nH]1 [Compound 16] | 6.30 to 8.00 | ≥ 8.00 |  | 
32 | Cc1ccc2cc(Sc3nc(Nc4cc(C)[nH]n4)cc(N4CC(N5CCCC5)C4)n3)ccc2n1 [Compound 182] | 6.30 to 8.00 | 7.30 to 8.00 and > 7.60 |  | 
33 | Cc1cc(Nc2cc(N3CCC3)nc(Sc3ccc(NC(=O)c4ccc(CN(C)C)cc4)cc3)n2)[nH]n1 [Compound 137] |  | 5.70 to 7.30 | 5.70 to 6.30 | 
34 | Cc1cc(Nc2cc(N3CCC3)nc(Sc3ccc(C(=O)NCc4ccccc4Cl)cc3)n2)n[nH]1 [Compound 24] | 5.70 to 6.30 | 5.70 to 7.30 |  | 
35 | Cc1cc(Nc2cc(N3CC(F)C3)nc(Sc3ccc(NC(=O)c4ccccc4Cl)cc3)n2)[nH]n1 [Compound 60] | 6.30 to 8.00 | 7.30 to 8.00 |  | 
36 | Cc1cc(Nc2cc(N3CCC3)nc(Sc3ccc(NC(=O)CCC(F)(F)F)cc3)n2)[nH]n1 [Compound 121] | 6.30 to 8.00 | 7.30 to 8.00 and > 7.60 |  | 
37 | O=C(CC(F)(F)F)Nc1ccc(Sc2nc(Nc3cc[nH]n3)cc(N3CC(F)(C4CC4)C3)n2)cc1 [Compound 148] | 6.30 to 8.00 | 5.70 to 7.30 |  | 
38 | Cc1cc(Nc2cc(N3CC(N4CCOCC4)C3)nc(Sc3ccc(NC(=O)CC(F)(F)F)cc3)n2)[nH]n1 [Compound 199] |  | ≥ 8.00 | ≥ 8.00 | 
39 | Cc1cc(Nc2cc(N3CC(C)C3)nc(Sc3ccc(NC(=O)c4ccccc4Cl)cc3)n2)n[nH]1 [Compound 39] |  | 7.30 to 8.00 and > 7.60 | 6.30 to 8.00 | 
40 | Cc1cc(Nc2cc(N3CCC3)nc(Sc3ccc(NC(=O)C4CC4(F)F)cc3)n2)[nH]n1 (stereo not drawn) [Compound 112] |  | 7.30 to 8.00 and > 7.60 | ≥ 8.00 | 
41 | CCNC(=O)c1ccc(Sc2nc(Nc3cc(C)[nH]n3)cc(N3CCC3)n2)cc1 [Compound 20] | 6.30 to 8.00 | 7.30 to 8.00 |  | 
42 | Cc1ccc2cc(Sc3nc(Nc4cc(C)[nH]n4)cc(N4CC(C5CCC(F)C5)C4)n3)ccc2n1 (stereo not drawn) [Compound 198] |  | 7.30 to 8.00 and > 7.60 | 6.30 to 8.00 | 
43 | Cc1cc(Nc2cc(N3CC(OC(C)(C)C)C3)nc(Sc3ccc(NC(=O)c4ccccc4Cl)cc3)n2)[nH]n1 [Compound 66] | 6.30 to 8.00 | ≥ 8.00 |  | 
44 | CC1=NN=C(Nc2cc(N3CCC3)nc(Sc3ccc(NC(=O)C4CCCN4C)cc3)n2)C1 (stereo not drawn) [Compound 6] |  |  |  | 7.30 to 8.00 and > 7.60

— patent publication US8637511B2, “Aminopyrimidines useful as kinase inhibitors” (Vertex Pharmaceuticals Incorporated, priority 2005, dated 2014)
